Data from PubChem BioAssay (NCI).
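The compound was tested at five concentrations on cells cultured in 96-well plates, with a 48-hour exposure period. At the TGI there is no net growth.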

Assays:
Test in all cases: growth of human tumour cells (NCI), 48 h
M14 melanoma = system: M14 melanoma
UACC-257 melanoma = system: UACC-257 melanoma
HT29 colon = system: HT29 colon
EKVX NSCLC = system: EKVX NSCLC
SW-620 colon = system: SW-620 colon
MOLT-4 leukemia = system: MOLT-4 leukemia
HCT-15 colon = system: HCT-15 colon
UACC-62 melanoma = system: UACC-62 melanoma
SN12C renal = system: SN12C renal
MDA-N = system: MDA-N

SMILES | TGI (M14 melanoma) [µM] | TGI (UACC-257 melanoma) [µM] | TGI (HT29 colon) [µM] | TGI (EKVX NSCLC) [µM] | TGI (SW-620 colon) [µM] | TGI (MOLT-4 leukemia) [µM] | TGI (HCT-15 colon) [µM] | TGI (UACC-62 melanoma) [µM] | TGI (SN12C renal) [µM] | TGI (MDA-N) [µM]
Cc1cc(S(=O)(=O)O)c(NC(=O)c2oc3cc(O)ccc3c(=O)c2C)cc1Cl | > 100 | > 100 | > 100 | > 100 | > 100 | > 100 | > 100 | > 100 | > 100 | > 100
Cc1ccc2c(c1)CC1(C2=O)[C@H](c2ccccc2)C2C(=O)c3ccc(C)cc3C2[C@H]1c1ccccc1 (stereo not given in full) | > 100 | > 100 | > 100 | > 100 | > 100 | > 100 | > 100 | > 100 | > 100 | > 100
Cn1c(=O)sc2cc(C(=S)N3CCOCC3)ccc21 | > 100 | > 100 | > 100 | > 100 | > 100 | > 100 | > 100 | > 100 | > 100 | > 100
CC(=O)c1ccc(NC(=O)CSc2nc(C)nc3c2sc(=S)n3-c2ccccc2)cc1 | > 3.16 | > 3.16 | > 3.16 | > 3.16 | > 3.16 | > 3.16 | > 3.16 | > 3.16 | > 3.16 | > 3.16
Cc1c2cccc-2ccc2c1[nH]c1ccccc12 | 3.7 | 3.12 | 14.4 | 3.68 | 7.68 | 28.2 | 9.01 | 3.79 | 7.01 | 4.15
O=c1oc2ccc(Cl)cc2cc1-c1cn2ccsc2n1 | > 100 | > 100 | > 100 | > 100 | > 100 | > 100 | > 100 | > 100 | > 100 | > 100
CC(C)(C)c1ccc(-c2nnc(-c3cc(C#N)cc(-c4nnc(-c5ccc(C(C)(C)C)cc5)o4)c3)o2)cc1 | > 100 | > 100 | > 100 | > 100 | > 100 | > 100 | > 100 | > 100 | > 100 | > 100
CC1(C)[C@@H]2CC[C@@]1(C)[C@H](O)[C@@H]2SCc1ccccc1 | 30.1 | 32.5 | 29.6 | 34.2 | 74.9 | 49.7 | 29.7 | 22.2 | 34.5 | 43.4
COC(=O)C(NC(=O)CSc1nnc(COc2ccc(Cl)cc2)n1-c1ccccc1)C(C)C (stereo not given) | 58 | 34 | 44.5 | 73.1 | > 100 | > 100 | > 100 | 36.1 | 37.1 | 32.1
O=P(O)(O)CN1CCNCCN(CP(=O)(O)O)CCNCC1 | > 100 | > 100 | > 100 | > 100 | > 100 | > 100 | > 100 | > 100 | > 100 | > 100
COc1ccc(C2=C(OC(=O)N(C)C)c3cccn3-c3cc(Cl)ccc3S2)cc1 | > 10 | > 10 | > 10 | > 10 | > 10 | > 10 | > 10 | > 10 | > 10 | > 10
CCOC(=O)C1CCCCc2sc(N)c(C#N)c21 (stereo not given) | > 100 | > 100 | > 100 | > 100 | > 100 | > 100 | > 100 | > 100 | > 100 | > 100
O=S1(=O)CCN(c2ccccc2CC(c2c[nH]c3ccccc23)c2c[nH]c3ccccc23)CC1 | 20.5 | 18 | 23.3 | 55.7 | 21.1 | 8.87 | 36.3 | 18.9 | 24.1 | 18.2
CC(C)(C)c1c(C(C)(C)C)c(=O)c1=O | > 100 | > 100 | > 100 | > 100 | > 100 | > 100 | > 100 | > 100 | > 100 | > 100
O=C1C=C(N2CCN(c3ccccn3)CC2)C(=O)c2c(O)ccc(O)c21 | > 48.2 | 23.4 | 31.2 | > 65.7 | 45.2 | 42.2 | 39.1 | 16.1 | 45.2 | 5.76
NS(=O)(=O)c1cc(S(N)(=O)=O)c(NC(=O)N(c2ccccc2)c2ccccc2)c(Cl)c1Cl | 51.4 | 27.6 | 48.2 | 62.8 | > 100 | 42 | > 100 | 93.2 | 57.6 | 88.5
CCCCCCCCCCCCCCCCOCC(Cl)COP(=O)(O)OP(=O)(O)OCC1OC(n2cnc3c(N)ncnc32)C(O)C1O (stereo not given) | > 100 | > 100 | > 100 | > 100 | > 100 | > 100 | > 100 | > 100 | > 100 | > 100
O=C1CC2(CCNCC2)C(=O)N1N1CCOCC1 | > 100 | > 100 | > 100 | > 100 | > 100 | > 100 | > 100 | > 100 | > 100 | > 100
C/C(=N\Nc1ccccc1)C(CN(C)C)C(c1ccccc1)c1c(O)c2ccccc2oc1=O (stereo not given) | > 100 | > 100 | > 100 | > 100 | > 100 | > 100 | > 100 | > 100 | > 100 | > 100
NC(=O)C1=CC2C3C=CC2(O)C(=O)OC3O1 (stereo not given) | 13.2 | 7.44 | 9.83 | 13.5 | 28.6 | 8.78 | 13.9 | 7.74 | 20 | 6.97
CCCNC(=O)CCC(C)[C@H]1CCC2C3C(C[C@H](OC(C)=O)[C@@]21C)[C@@]1(C)CCC2(C[C@H]1C[C@H]3OC(C)=O)OOC1(CCCCC1)OO2 (stereo not given in full) | > 100 | > 100 | > 90.8 | 3.95 | > 75.5 | 5.14 | > 100 | > 100 | 16 | 16.6
O=C(CSc1nc2ccc(I)cc2c(=O)n1Cc1ccccc1)NN1C(=O)CCC1=O | > 100 | > 100 | > 100 | > 100 | > 100 | > 100 | > 100 | > 100 | > 100 | > 100
COc1ccc(C(=O)c2ccc(-n3cc(/C=C/[N+](=O)[O-])c4ccccc43)cc2)cc1 | > 74.5 | 31.3 | 57.3 | 55 | > 100 | > 100 | 41.1 | 28.5 | 42.7 | > 58.9
O=C1OI(C#Cc2ccccc2)c2ccccc21 | > 49.8 | 25.2 | 20.1 | 9.67 | 5.14 | 5.34 | 11.2 | 19.3 | 22.6 | 30.6
NC(=S)N/N=C\CC(O)(C(F)(F)F)C(F)(F)F | > 10 | > 10 | > 10 | > 10 | > 10 | > 10 | > 10 | > 10 | > 10 | > 10
CCCCCCOP(=O)(OCCCCCC)OC(C(=O)OC)C(F)(F)F (stereo not given) | > 100 | > 100 | > 100 | > 100 | > 100 | > 100 | > 100 | > 100 | > 100 | > 100
O=C1/C(=C\c2cccc(Oc3ccccc3)c2)SC(c2ccccc2)N1c1cccc([N+](=O)[O-])c1 (stereo not given) | > 100 | > 100 | > 100 | > 100 | > 100 | > 100 | > 100 | > 100 | > 100 | > 100
COc1cccc(CN(C(=O)/C=C\Sc2ccccc2)C(C)(C)C)c1 | > 100 | > 100 | > 100 | > 100 | > 100 | > 100 | > 100 | > 100 | > 100 | > 100
O=C(/C=C/c1ccco1)c1cccc(C(=O)/C=C/c2ccco2)n1 | > 96.3 | > 100 | 37.4 | > 100 | 10.4 | 6.25 | 28.1 | > 100 | 32 | > 100
O=C1CSC2(CC(/C=C/c3ccccc3Br)=NN2c2cccc(S(=O)(=O)O)c2)N1c1nc2ccccc2s1 (stereo not given) | > 100 | > 100 | > 100 | > 100 | > 100 | > 100 | > 100 | > 100 | > 100 | > 100
